Several values for one entry are separate records, joined by “and”; a condition that tells them apart may be missing. Identical values can stand only once. Like-named read-outs stand apart in the source and are kept apart here.
Columns and labels:
[1] = test system: Abutilon theophrasti (velvetleaf, ABUTH); experiment: Greenhouse trial, % visual weed control; format: in vivo; conditions: 14DAA
Protocol: (§1) Greenhouse trials were conducted under controlled environment greenhouse conditions, with plants grown in pots with Metromix soil and bottom watered. Treatments were applied with 3 replicates per treatment, using a track sprayer with 2 flat fan nozzles at 40 pounds per square inch (PSI). Water was used as the diluent at 140 liters per hectare (L/ha), with weeds being 2-4 leaf stage and approximately 3 inches in height at treatment.

[2] = test system: Ambrosia artemisiifolia (common ragweed, AMBEL); experiment: Greenhouse trial, % visual weed control; format: in vivo; conditions: 14DAA, 100 g ae/ha alone
Protocol: as §1

[3] = test system: Chenopodium album (common lambsquarter, CHEAL); experiment: Greenhouse trial, % visual weed control; format: in vivo; conditions: 14DAA
Protocol: as §1

[4] = test system: Elymus repens (quackgrass, AGRRE); experiment: Greenhouse trial, % visual weed control; format: in vivo; conditions: 14DAA, 200 g ae/ha alone
Protocol: as §1

[5] = test system: Conyza bonariensis (hairy fleabane, ERIBO); conditions: field trial
Protocol: (§2) Field trials were conducted under normal field conditions in multiple states in the United States, including but not limited to Alabama, Mississipi, South Carolina and Tennessee; and in Brazil, including but not limited to the states of Goias, Mato Grosso, Parana, Rio Grande do Sul, and Sao Paulo. Trials were established as RCB (randomized complete block) design, with 3-4 replicates per treatment, and plot sizes varying from 2-3 meters (m) wide by 4-8 m long. Treatments were applied with small plot backpack sprayers, using pressurized carbon dioxide (CO2) as propellant. Pressure varied from 22-40 PSI, with spray tips typically of a Flat Fan type applying water diluent at 150 L/ha. Boom sizes varied from 2-3 m in width. Treatments were applied to soybean, cotton or fallow crop land. Weed sizes varied, but all treatments were applied as post-emergence treatments to weeds from 2 leaf to 2 tiller growth stages varying from 2-15 inches (in) in height. No additional adjuvant was mixed with the treatments applied in the field
(§3) The treated plots and control plots were rated blind at various intervals after application.
(§4) Colby's equation was used to determine the herbicidal effects expected from the mixtures (Colby, S. R. Calculation of the synergistic and antagonistic response of herbicide combinations. Weeds 1967 15, 20-22). A t-test (alpha=0.05) between Colby predictions and observed combinations was used to test for significant differences indicating synergy or antagonism.
(§5) The following equation was used to calculate the expected activity of mixtures containing two active ingredients, A and B:
(§6) Expected=A+B−(A×B/100) • A=observed efficacy of active ingredient A at the same concentration as used in the mixture; • B=observed efficacy of active ingredient B at the same concentration as used in the mixture.

[6] = test system: Conyza canadensis (horseweed, ERICA); conditions: field trial
Protocol: as §2, §3, §4, §5, §6

[7] = test system: Ipomoea quamoclit (cypress vine morningglory, IPOQU); conditions: 7DAA, field trial, 1065 g ae/ha alone
Protocol: as §2, §3, §4, §5, §6

[8] = test system: Amaranthus palmeri (Palmer pigweed, AMAPA); experiment: Field trial, % visual weed control; format: in vivo
Description: (§7) Boom sizes varied from 2-3 m in width.

[9] = test system: Brachiaria decumbens (Surinam grass, BRADC); experiment: Field trial, % visual weed control; format: in vivo; conditions: 12DAA, 684 g ae/ha alone
Description: as §7

[10] = test system: Commelina benghalensis (hairy wandering Jew, COMBE); experiment: Field trial, % visual weed control; format: in vivo; conditions: 780 g ae/ha alone
Description: as §7

[11] = test system: Euphorbia heterophylla (wild poinsettia, EPHHL); experiment: Field trial, % visual weed control; format: in vivo; conditions: 28DAA, 585 g ae/ha alone
Description: as §7

[12] = test system: Euphorbia hirta (garden spurge, EPHHI); experiment: Field trial, % visual weed control; format: in vivo
Description: as §7

[13] = test system: Glycine max (soybean, glyphosate tolerant, GLXMA); experiment: Field trial, % visual weed control; format: in vivo
Description: as §7

[14] = test system: Ipomoea grandifolia (Corda-de-viola, IAQGR); experiment: Field trial, % visual weed control; format: in vivo; conditions: 17DAA, 780 g ae/ha alone
Description: as §7

[15] = test system: Ipomoea species (morningglory, IPOSS); experiment: Field trial, % visual weed control; format: in vivo; conditions: 8DAA, 800 g ae/ha alone
Description: as §7

[16] = test system: Jacquemontia tamnifolia (smallflower morningglory, IAQTA); experiment: Field trial, % visual weed control; format: in vivo; conditions: 7DAA, 1065 g ae/ha alone
Description: as §7

[17] = test system: Raphanus raphanistrim (wild radish, RAPRA); experiment: Field trial, % visual weed control; format: in vivo; conditions: 6DAA, 780 g ae/ha alone
Description: as §7

[18] = test system: Sesbania exaltata (hemp sesbania, SEBEX); experiment: Field trial, % visual weed control; format: in vivo; conditions: 8DAA, 800 g ae/ha alone
Description: as §7

[19] = test system: Spermacoce latifolia (broadleaf buttonweed, BOILF); experiment: Field trial, % visual weed control; format: in vivo
Description: as §7

[20] = test system: Tridax procumbens L (tridax daisy, TRQPR); experiment: Field trial, % visual weed control; format: in vivo; conditions: 16DAA, 780 g ae/ha alone
Description: as §7

O=C(O)COc1ccc(Cl)cc1Cl [2,4-D-Choline, 2-hydroxy-N,N,N-trimethylethanaminium 2-(2,4-dichlorophenoxyl)acetate] was tested, and the “Mean % Weed Control” value ([1]; 100 g ae/ha alone) was 28.3%, the “Mean % Weed Control” value ([1]; 200 g ae/ha alone) was 46.7% and the “Mean % Weed Control” value ([1]; 400 g ae/ha alone) was 73.3%. The “Mean % Weed Control” value ([1]; 800 g ae/ha alone) was 88.3%, the “Mean % Weed Control” value [2] was 25.0% and the “Mean % Weed Control” value ([3]; 100 g ae/ha alone) was 5.0%. For the same molecule, the “Mean % Weed Control” value ([3]; 200 g ae/ha alone) was 61.7%, the “Mean % Weed Control” value ([3]; 400 g ae/ha alone) was 75.0% and the “Mean % Weed Control” value [4] was 0.0%. The “Mean % Weed Control” value ([5]; 6DAA, 720 g ae/ha alone) was 5.0%, the “Mean % Weed Control” value ([5]; 6DAA, 1080 g ae/ha alone) was 5.0% and the “Mean % Weed Control” value ([5]; 7DAA, 780 g ae/ha alone) was 5.0% and 12.5%. The “Mean % Weed Control” value ([5]; 10DAA, 780 g ae/ha alone) was 46.3%, the “Mean % Weed Control” value ([5]; 20DAA, 780 g ae/ha alone) was 34.5% and the “Mean % Weed Control” value ([5]; 21DAA, 780 g ae/ha alone) was 38.8%. The “Mean % Weed Control” value ([5]; 31DAA, 780 g ae/ha alone) was 53.8%, the “Mean % Weed Control” value ([5]; 36DAA, 780 g ae/ha alone) was 27.5% and 17.5% and the “Mean % Weed Control” value ([6]; 10DAA, 360 g ae/ha alone) was 11.7%. The “Mean % Weed Control” value ([6]; 10DAA, 720 g ae/ha alone) was 15%, the “Mean % Weed Control” value ([6]; 14DAA, 800 g ae/ha alone) was 58.8% and the “Mean % Weed Control” value ([6]; 15DAA, 360 g ae/ha alone) was 16.7%. For the same molecule, the “Mean % Weed Control” value ([6]; 15DAA, 720 g ae/ha alone) was 21.7%, the “Mean % Weed Control” value ([6]; 21DAA, 800 g ae/ha alone) was 66.3% and the “Mean % Weed Control” value ([6]; 28DAA, 800 g ae/ha alone) was 50.0%. The “Mean % Weed Control” value ([6]; 31DAA, 360 g ae/ha alone) was 25%, the “Mean % Weed Control” value ([6]; 31DAA, 720 g ae/ha alone) was 40% and the “Mean % Weed Control” value [7] was 81.3%. For the same molecule, the “Mean % Weed Control” value ([8]; 7DAA, 800 g ae/ha alone) was 47.5%, the “Mean % Weed Control” value ([8]; 13DAA, 1065 g ae/ha alone) was 45.0% and the “Mean % Weed Control” value ([8]; 21DAA, 1065 g ae/ha alone) was 38.8%. The “Mean % Weed Control” value [9] was 7.5%, the “Mean % Weed Control” value ([10]; 12DAA) was 70.0% and the “Mean % Weed Control” value ([10]; 15DAA) was 68.8% and 66.3%. The “Mean % Weed Control” value ([10]; 18DAA) was 43.8%, the “Mean % Weed Control” value ([10]; 27DAA) was 66.3% and the “Mean % Weed Control” value ([10]; 28DAA) was 67.5%. The “Mean % Weed Control” value ([10]; 35DAA) was 70.0%, the “Mean % Weed Control” value [11] was 65.0% and the “Mean % Weed Control” value ([12]; 7DAA, 780 g ae/ha alone) was 13.8%. For the same molecule, the “Mean % Weed Control” value ([12]; 18DAA, 780 g ae/ha alone) was 36.3%, the “Mean % Weed Control” value ([12]; 21DAA, 780 g ae/ha alone) was 0.0% and the “Mean % Weed Control” value ([12]; 24DAA, 480 g ae/ha alone) was 21.7%. The “Mean % Weed Control” value ([13]; 7DAA, 960 g ae/ha alone) was 50.0%, the “Mean % Weed Control” value ([13]; 16DAA, 456 g ae/ha alone) was 48.8% and the “Mean % Weed Control” value ([13]; 28DAA, 480 g ae/ha alone) was 58.8%. The “Mean % Weed Control” value ([13]; 28DAA, 960 g ae/ha alone) was 67.5%, the “Mean % Weed Control” value ([13]; 30DAA, 456 g ae/ha alone) was 60.0% and the “Mean % Weed Control” value [14] was 98.0%. For the same molecule, the “Mean % Weed Control” value [15] was 80.0%, the “Mean % Weed Control” value [16] was 80.0% and the “Mean % Weed Control” value [17] was 80.0%. For the same molecule, the “Mean % Weed Control” value [18] was 32.5%, the “Mean % Weed Control” value ([19]; 18DAA, 780 g ae/ha alone) was 37.5% and the “Mean % Weed Control” value ([19]; 21DAA, 780 g ae/ha alone) was 63.8%. The “Mean % Weed Control” value ([19]; 24DAA, 480 g ae/ha alone) was 30.0%, the “Mean % Weed Control” value ([19]; 27DAA, 780 g ae/ha alone) was 67.5% and the “Mean % Weed Control” value ([19]; 28DAA, 780 g ae/ha alone) was 68.8%. The “Mean % Weed Control” value [20] was 12.5%.
